The source of these data is patent US7084155B2, “Chemokine receptor binding heterocyclic compounds” (AnorMED, priority 2000, dated 2006).

A word on the EC50: it is the concentration that produces a half-maximal response. A higher EC50 goes with a less potent agent. What is called inhibition is the drop in the measured response relative to a control, in per cent. Lower therefore signals little suppression.

Format in all cases: cell-based
One assay concerns HIV-1 BaL. In words: Inhibition of HIV-1 BaL (CCR5 using) replication in PHA-stimulated PBMC's, viral p24 antigen expression. The settings on record: Human immunodeficiency virus 1, BAL.
The test system of the next assay is HIV-1 NL4.3 or IIIB. In words: Inhibition of HIV-1 (NL4.3 or IIIB, CXCR4 using) replication in MT-4 cells, MTT viability. The settings on record: Human immunodeficiency virus 1, IIIB, MT4, concentration protecting 50% of virus-infected cells against viral cytopathicity. How it is done: Assay for Inhibition of HIV-1 (NL4.3) Replication in MT-4 Cells Inhibition of HIV-1 NL4.3 (or IIIB, CXCR4 using) replication assays were performed as previously described (Bridger et al. J. Med. Chem. 1999, 42, 3971-3981; De […] et al. Proc. Natl. Acad. Sci, 1992, 89, 5286-5290; De […] et al. Antimicrob. Agents Chemother. 1994, 38, 668-674; Bridger et al. J. Med. Chem. 1995, 38, 366-378; Schols et al. J. Exp. Med., 1997, 186, 1383-1388). Anti-HIV activity and cytotoxicity measurements were carried out in parallel. They were based on the viability of MT-4 cells that had been infected with HIV in the presence of various concentrations of the test compounds. After the MT-4 cells were allowed to proliferate for 5 days, the number of viable cells was quantified by a tetrazolium-based colorimetric 3-(4,5-dimethylthiazol-2-yl)-2,5-diphenyltetrazolium bromide (MTT) procedure in 96-well microtrays. In all of these assays, viral input (viral multiplicity of infection, MOI) was 0.01, or 100 times the 50% cell culture infective dose (CCID50). The EC50 was defined as the concentration required to protect 50% of the virus-infected cells against viral cytopathicity.
A general note: Protection from cytopathic effect is a common read-out in antiviral testing.

For assay [1], the system named is SDF-1 induced Ca flux in SUP-T1 cells. The experiment in a line: Inhibition of chemokine (SDF-1) induced Ca flux measured on a FLIPR. The following applies: Homo sapiens. How it is done:
Inhibition of Chemokine Induced Ca Flux Measured on a FLIPR (Molecular Devices) Loading dye: Fluo-3, AM (Molecular Probes F-1241) is dissolved in anhydrous DMSO and stored frozen in aliquots. To increase the solubility of the dye in the loading medium, 10% (w/v) pluronic acid (Molecular Probes F-127) is added to the Fluo-3 stock solution immediately before use. HBSS+20 mM Hepes buffer+0.2% BSA, pH 7.4. HBSS 10× [(w/o phenol red and sodium bicarbonate (Gibco 14 065–049)]; Hepes buffer 1M (Gibco 15 630–056), BSA (Sigma A3675). The flux buffer is vacuum-filtered and stored refrigerated for a maximum of 5 days. Before use in the experiment, the buffer is warmed at 37° C. in a waterbath. The test compounds were diluted in flux buffer to the desired concentration and added to 4 wells of a black microplate (4 parallel measurements per compound). The following control wells were used: 100% response control (no inhibition), flux buffer was added; 100% inhibition control: chemokine was added at 5-times the concentration required to induce a Ca flux. The chemokines are diluted in flux buffer to concentrations that are 4-fold higher than the desired concentrations required for stimulation of the cells (i.e. 2.5 nM for SDF-1[…] and 0.6 nM for RANTES). The chemokines were added to untreated 96-well Sero well compound plates (International Medical, Sterilin code 611F96). In the negative control well's (baseline monitoring), flux buffer is added instead of chemokine. As a positive control to check for dye loading efficiency, 20 μM digitonin (final concentration) was also included. The agonist plate was incubated in the FLIPR (37° C.) for 15–30 min. Cell Loading Protocol for Measuring Inhibition of SDF-1[…] Induced Ca Flux in SUP-T1 Cells. SUP-T1 cells were centrifuged at room temperature (RT) and re-suspended in loading medium (RPMI-1640 containing 2% FBS and 4 μM Fluo-3, AM). The cells were incubate at room temperature for 45 min. then washed twice in flux buffer then incubated in flux buffer at room temperature for 10 min. The cells were centrifuged and re-suspended in flux buffer at a density of 3×10^6 cells per mL. A 100 uL aliquot of the cell suspension (3×10^5 cells) was added to each well of a black microplate (Costar 3603), which already contains 50 uL of a solution of the test compound (at concentrations that are 3-fold higher than the desired final compound concentrations). The microplate is then gently centrifuged at room temperature. Homogeneous spreading of the cells on the bottom of the microplate wells was then confirmed with a microscope and the microplate was incubated in the FLIPR (37° C.) for 10 min. prior to testing. Fluorescence Measurements as a Function of Time on the FLIPR The FLIPR settings (camera exposure time and laser power) are adjusted to obtain initial fluorescence values between 8,000 and 10,000 units. After monitoring a 20 second-baseline, the agonist (chemokine) (50 uL) is added by automatic pipettor with black pipette tips. Fluorescence is measured simultaneously in all wells of the microplate every 2 seconds (first 2 min) and thereafter every 6 seconds (additional 2 min). The average ca-flux measured in each set of 4 identical wells (one test compound) was calculated by the FLIPR software.

Take `c1ccc(CNCc2ccc(CN(Cc3nc4ccccc4o3)C3CCCc4cccnc43)cc2)nc1` (centres unmarked) [Example 8, N-(2-pyridinylmethyl)-N′-(benzoxazol-2-ylmethyl)-N′-(5,6,7,8-tetrahydro-8-quinolinyl)-1,4-benzenedimethanamine]: the EC50 in the assay with HIV-1 BaL and with HIV-1 NL4.3 or IIIB was < 20 µg/mL each time. As to `Cc1ccc2nc(CN(Cc3ccc(CNCc4ccccn4)cc3)C3CCCc4cccnc43)oc2c1` (centres unmarked) [Example 17, N-(2-pyridinylmethyl)-N′-(6-methylbenzoxazol-2-ylmethyl)-N′-(5,6,7,8-tetrahydro-8-quinolinyl)-1,4-benzenedimethanamine], the EC50 with HIV-1 BaL and in the assay with HIV-1 NL4.3 or IIIB was < 20 µg/mL throughout.

`c1ccc(CNCc2ccc(CN(Cc3cc4ccccc4[nH]3)C3CCCc4cccnc43)cc2)nc1` (centres unmarked) [Example 19, N-(2-pyridinylmethyl)-N′-(indol-2-ylmethyl)-N′-(5,6,7,8-tetrahydro-8-quinolinyl)-1,4-benzenedimethanamine]: the EC50 in the assay on HIV-1 BaL and in the assay on HIV-1 NL4.3 or IIIB was < 20 µg/mL in each case. Take `COc1ccc(-c2cnc(CN(Cc3ccc(CNCc4ccccn4)cc3)C3CCCc4cccnc43)[nH]2)cc1` (centres unmarked) [Example 26, N-(2-pyridinylmethyl)-N′-[4-(4-methoxyphenyl)-1H-imidazol-2-ylmethyl]-N′-(5,6,7,8-tetrahydro-8-quinolinyl)-1,4-benzenedimethanamine]: the inhibition at 20 µg/mL in assay [1] is > 20%. Also, in the assay with HIV-1 NL4.3 or IIIB, the EC50 was < 20 µg/mL. `c1ccc(-c2ccc(-c3cnc(CN(Cc4ccc(CNCc5ccccn5)cc4)C4CCCc5cccnc54)[nH]3)cc2)cc1` (centres unmarked) [Example 31, N-(2-Pyridinylmethyl)-N′-(4-(4-biphenyl)-1H-imidazol-2-ylmethyl)-N′-(5,6,7,8-tetrahydro-8-quinolinyl)-1,4-benzenedimethanamine]: the EC50 with HIV-1 BaL and with HIV-1 NL4.3 or IIIB was < 20 µg/mL each time.

As to `c1ccc(CNCc2ccc(CN(Cc3ncc(-c4ccc5c(c4)CCCC5)[nH]3)C3CCCc4cccnc43)cc2)nc1` (centres unmarked) [Example 32, N-(2-Pyridinylmethyl)-N′-[5-(5,6,7,8-tetrahydronaphthalen-2-yl)-1H-imidazol-2-ylmethyl]-N′-(5,6,7,8-tetrahydro-8-quinolinyl)-1,4-benzenedimethanamine], the EC50 with HIV-1 BaL and in the assay on HIV-1 NL4.3 or IIIB was < 20 µg/mL throughout. `Fc1ccc(-c2c[nH]c(CN(Cc3ccc(CNCc4ccccn4)cc3)C3CCCc4cccnc43)n2)cc1` (centres unmarked) [Example 36, N-(2-Pyridinylmethyl)-N′-[4-(4-fluorophenyl)-1H-imidazol-2-ylmethyl]-N′-(5,6,7,8-tetrahydro-8-quinolinyl)-1,4-benzenedimethanamine]: the inhibition at 20 µg/mL in assay [1] was > 20%. Besides, in the assay with HIV-1 NL4.3 or IIIB, the half-maximal effective concentration (EC50) is < 20 µg/mL. Turning to `c1ccc(CNCc2ccc(CN(CCn3cnc4ccccc43)C3CCCc4cccnc43)cc2)nc1` (centres unmarked) [Example 37, N-(2-pyridinylmethyl)-N′-[2-(benzimidazol-1-yl)eth-1-yl]-N′-(5,6,7,8-tetrahydro-8-quinolinyl)-1,4-benzenedimethanamine], in the assay on HIV-1 BaL, the EC50 was < 20 µg/mL. As to `c1ccc(CNCc2ccc(CN(CCCn3cnc4ccccc43)C3CCCc4cccnc43)cc2)nc1` (centres unmarked) [Example 38, N-(2-pyridinylmethyl)-N′-[3-(benzimidazol-1-yl)prop-1-yl]-N′-(5,6,7,8-tetrahydro-8-quinolinyl)-1,4-benzenedimethanamine], the inhibition at 20 µg/mL in assay [1] was > 20%. Moreover, the EC50 in the assay with HIV-1 NL4.3 or IIIB is < 20 µg/mL.

For the compound `c1ccc(CNCc2ccc(CN(Cc3nc4ccccc4[nH]3)C3CCOc4cccnc43)cc2)nc1` (centres unmarked) [Example 40, N-(2-pyridinylmethyl)-N′-(1-H-benzimidazol-2-ylmethyl)-N′-(3,4-dihydro-2H-pyrano[3,2-b]pyridinyl)-1,4-benzenedimethanamine], the inhibition at 20 µg/mL in assay [1] was > 20%. Also, the EC50 in the assay on HIV-1 NL4.3 or IIIB is < 20 µg/mL. For `CC1(N(Cc2ccc(CNCc3ccccn3)cc2)Cc2nc3ccccc3[nH]2)CCCc2cccnc21` (centres unmarked) [Example 42, N-(2-pyridinylmethyl)-N′-(1H-benzimidazol-2-ylmethyl)-N′-(8-methyl-5,6,7,8-tetrahydro-8-quinolinyl)-1,4-benzenedimethanamine], in that order: > 20% and < 20 µg/mL. For `COc1ccnc2c1CCCC2N(Cc1ccc(CNCc2ccccn2)cc1)Cc1nc2ccccc2[nH]1` (centres unmarked) [Example 44, N-(2-pyridinylmethyl)-N′-[1H-benzimidazol-2-ylmethyl]-N′-(4-methoxy-5,6,7,8-tetrahydro-8-quinolinyl)-1,4-benzenedimethanamine], in that order: > 20% and < 20 µg/mL. For the compound `Cc1cccnc1CNCc1ccc(CN(Cc2nc3ccccc3[nH]2)C2CCCc3cccnc32)cc1` (centres unmarked) [Example 56, N-(3-methyl-2-pyridinylmethyl)-N′-(1H-benzimidazol-2-ylmethyl)-N′-(5,6,7,8-tetrahydro-8-quinolinyl)-1,4-benzenedimethanamine], the inhibition at 20 µg/mL in assay [1] is > 20%. Besides, the EC50 in the assay on HIV-1 NL4.3 or IIIB was < 20 µg/mL. As for `Brc1cccc(CNCc2ccc(CN(Cc3nc4ccccc4[nH]3)C3CCCc4cccnc43)cc2)n1` (centres unmarked) [Example 57, N-(6-bromo-2-pyridinylmethyl)-N′-(1H-benzimidazol-2-ylmethyl)-N′-(5,6,7,8-tetrahydro-8-quinolinyl)-1,4-benzenedimethanamine], in assay [1], the inhibition at 20 µg/mL was > 20%. In addition, the EC50 in the assay with HIV-1 NL4.3 or IIIB is < 20 µg/mL. Regarding `Oc1cccc(CNCc2ccc(CN(Cc3nc4ccccc4[nH]3)C3CCCc4cccnc43)cc2)n1` (centres unmarked) [Example 58, N-(6-hydroxy-2-pyridinylmethyl)-N′-(1H-benzimidazol-2-ylmethyl)-N′-(5,6,7,8-tetrahydro-8-quinolinyl)-1,4-benzenedimethanamine], the inhibition at 20 µg/mL in assay [1] is > 20%. Also, in the assay with HIV-1 NL4.3 or IIIB, the EC50 was < 20 µg/mL. As to `CCCOc1cccnc1CNCc1ccc(CN(Cc2nc3ccccc3[nH]2)C2CCCc3cccnc32)cc1` (centres unmarked) [Example 59, N-(3-propoxy-2-pyridinylmethyl)-N′-(1H-benzimidazol-2-ylmethyl)-N′-(5,6,7,8-tetrahydro-8-quinolinyl)-1,4-benzenedimethanamine], the inhibition at 20 µg/mL in assay [1] is > 20%. The EC50 in the assay on HIV-1 NL4.3 or IIIB was < 20 µg/mL. For the compound `c1cnc2c(c1)CCCC2NCc1ccc(CN(Cc2nc3ccccc3[nH]2)C2CCCc3cccnc32)cc1` (centres unmarked) [Example 60, N-(5,6,7,8-tetrahydro-8-quinolinyl)-N′-(1H-benzimidazol-2-ylmethyl)-N′-(5,6,7,8-tetrahydro-8-quinolinyl)-1,4-benzenedimethanamine], the inhibition at 20 µg/mL in assay [1] was > 20%. The EC50 with HIV-1 NL4.3 or IIIB is < 20 µg/mL. `COc1cccnc1CNCc1ccc(CN(Cc2nc3ccccc3[nH]2)C2CCCc3cccnc32)cc1` (centres unmarked) [Example 65, N-(3-methoxy-2-pyridinylmethyl)-N′-(1H-benzimidazol-2-ylmethyl)-N′-(5,6,7,8-tetrahydro-8-quinolinyl)-1,4-benzenedimethanamine]: in assay [1], the inhibition at 20 µg/mL was > 20%. Further, the EC50 in the assay with HIV-1 NL4.3 or IIIB was < 20 µg/mL.
